Data taken from US11679100B2, “Methods of enhancing immunity” (The Regents of the University of California, priority 2018, dated 2023).

Legend:
LLC tumor cells = assay: Adoptive transfer of LA1-treated tumor associated macrophages co-implanted with LLC tumor cells; format: in vivo, mice; conditions: tumor-derived macrophages treated with LA1, mixed 1:1 with LLC cells
Method: In vivo Macrophage Adoptive Transfer Experiments—F4/80+ cells were isolated from single cell suspensions of 700-800 mg LLC tumors from donor WT or Itgam−/− mice by FACS sorting. Primary bone marrow derived macrophages from WT or Itgam−/− mice were polarized and harvested into a single cell suspension. Alternatively, WT tumor derived macrophages were incubated with LA1 or saline. Purified macrophages were admixed 1:1 with LLC tumor cells and 5×10^5 total cells were injected subcutaneously into syngeneic host WT or Itgam−/− mice. Tumors were excised and weights were determined 14 days after inoculation.

CL66-Luc breast tumors = assay: Orthotopic CL66-Luc breast tumor model; format: in vivo, Balb/cJ mice
Method: Tumor Studies—Subcutaneous tumor studies: 5×10^5 LLC or B16 cells were injected subcutaneously into syngeneic (C57BL/6) 6- to 8-week old WT or Itgam^−/− mice (n=18). Tumors were excised at 7, 14 or 21 days, cryopreserved in OCT, lysed for RNA purification or collagenase-digested for flow cytometric analysis of CD11b+, F4/80+ and Gr1+ expression. Tumor volumes were calculated using the equation (l^2×w)/2. CL66-luc cells (0.5×10^6 cells) were suspended in 50 μL of basement membrane extract Matrigel (BD Pharmingen) in PBS (1:1) and inoculated orthotopically in the fourth mammary fat pad of female Balb/cJ mice. Tumor dimensions were measured every 2 days, and tumor volume was calculated using the equation: V (mm^3)=[…], where length is the longest diameter of the tumor and width is the shorter diameter.
Mice were divided into four cohorts: vehicle control treated, LA1 only treated, Taxol only treated, LA1 and Taxol treated. LA1 (2 mg/kg) was dissolved in 2% DMSO and 1% Tween-20 in saline and Taxol (2.5 mg/kg) was dissolved in a 1:1:6 ratio of Cremophor EL: Ethanol:Saline. LA1 was administered by intraperitoneal injection (i.p.) daily, while Taxol was administered every other day by i.p. injection until end-point. LA1+Taxol treated mice received LA1 i.p. in the morning followed by Taxol i.p. within 4 hours. Tumor burden was evaluated every other day by caliper measurements. Prior to tissue collection, mice were anesthetized by ketamine/xylazine and the lungs were perfused with PBS followed by 10% formalin and harvested for fixation. Mammary tumor tissue was harvested and divided for fixation (10% formalin or OCT), snap frozen, or made into single-cell suspensions and analyzed by flow cytometric analysis. For survival studies, Balb/c mice bearing CL66-derived tumors were treated for 6 weeks after the first treatment and monitored thereafter. End point was considered when the tumor reached […] in diameter (n=10-15).
Immunohistochemistry—Tumor samples were collected and cryopreserved in O.C.T. Sections (5 μm) were fixed in 100% cold acetone, blocked with 8% normal goat serum for 2 hours, and incubated with primary antibodies at […] for 2 hours at room temperature. Sections were washed 3 times with PBS and incubated with fluorescent secondary antibodies. Primary antibodies where: F4/80 (BM8, eBioscience), CD4 (H129.19, BD Bioscience), CD8 (53-6.7, BD Bioscience), CD31 (MEC13.1, BD Bioscience), desmin (RB0914-P1, LabVision, Thermo Scientific), and anti-smooth muscle actin (SMA) (1A4, Sigma-Aldrich). Slides were counterstained with 4′,6-diamidino-2-phenylindole (DAPI) to identify nuclei. Immunofluorescence images were collected on a Nikon microscope (Eclipse TE2000-U) and analyzed using Metamorph image capture and analysis software (Version 6.3r5, Molecular Devices). Pixels/field or cell number/field were quantified in five 100× fields from 5 biological replicates. For LA1 studies, immunohistochemical staining was quantified by counting marker positive cells in 3 different areas analyzed at 40× using a light microscope for each tumor tissue (n=4−6). Tissues that were stained with fluorochrome conjugated secondary antibodies were counter stained with DAPI and analyzed using the Zeiss 700 LSM confocal microscope and Zen software (Carl Zeiss Group, Hartford, Conn.).
Alternatively, immunostaining was performed on formalin fixed, paraffin-embedded tumor tissues. Deparaffinized tissue sections (5 μm) were either stained with hemotoxylin-eosin or were subjected to antigen retrieval by steam heating in an acidic pH solution (Citrate-based, Vector Laboratories) prior to immune staining for α-SMA (clone 1A4, Fisher Scientific), MMP9 (polyclonal rabbit, Abcam), S100A8 (goat polyclonal (M-19), Santa Cruz), CD31 (clone RM0032-1D12, Abcam), or ARG1 (sc-18351, Santa Cruz) at 4° C. overnight. […]

[1] = system: human MDA-MB-231 mammary xenograft tumors; assay: Orthotopic MDA-MB-231 mammary xenograft model; format: in vivo, mice
Method: Alternatively, 5 million MDA-MB 231 human breast cancer cells were injected orthotopically in the 4th mammary fat pad of 6-week old female nude mice. The tumors were allowed to establish for 35 days (at least 0.5 cm in diameter) and the tumor bearing mice were divided into three treatment groups including, vehicle, LA1 only (i.p.; 2.0 mg/kg; daily) and Taxol only (i.p.; 2.5 mg/kg every other day). Treatment was initiated on day 35 and continued until the end-point at day 58 post-tumor when all the mice were sacrificed and tumor tissue was harvested for histological analysis. Palpable tumors were measured using digital calipers 3 times weekly during the entire experiment to develop tumor growth curves.

[2] = system: LLC cells and macrophages; assay: In vitro proliferation of LLC cells and macrophages; format: cell-based, murine
CL66-luc tumor cell = assay: Cytotoxicity assay, luciferase activity; format: cell-based; conditions: 24, 48 and 72 hrs
Method: Cytotoxicity Assay—Taxol and LA1 cytotoxicity towards the CL66-luc tumor cell was determined by measuring luciferase activity in the tumor cells after exposure to LA1 or Taxol. CL66-luc cells (1,000 cells/well) were seeded into 96-well plates overnight at 37° C. prior to treatment with titrating concentrations of LA1 or Taxol dissolved in 1% DMSO in IDMEM for 24, 48 and 72 hrs. Cells treated with vehicle (1% DMSO in IDMEM) were a negative control. Media was aspirated from the cultured cells and 100 μL of a 150 μg/mL working solution of D-Luciferin in pre-warmed DMEM (10% FBS) was added to each well. The plates were incubated at 37° C. for 5 mins prior to reading luminescence using the EnSpire Plate Reader (PerkinElmer).

SMILES: O=C(O)c1ccc(-c2ccc(/C=C3\SC(=S)N(Cc4ccccc4)C3=O)o2)cc1 [LA1, leukadherin 1]
- tumor growth after co-implantation of treated macrophages with LLC cells (LLC tumor cells): completely inhibited tumor growth
- CD8+ T cells in tumors (CL66-Luc breast tumors; CL66-Luc tumors): increased the presence of CD8+ T cells
- MHCII+ macrophages in tumors (CL66-Luc breast tumors; CL66-Luc tumors): increased the presence of MHCII+ macrophages
- expression of Arginase1, S100A8 and MMP9 in tumors (CL66-Luc breast tumors; CL66-Luc tumors): inhibited expression of Arginase1, S100A8 and MMP9 in CL66-Luc tumors
- MHCII, CD206, Arg1, MMP9 and S100A8 expression in TAMs (CL66-Luc breast tumors; CL66 Luc model): stimulating MHCII expression and reducing CD206, Arg1, MMP9 and S100A8 expression in TAMs
- CL66-Luc tumor growth, combination with irradiation (CL66-Luc breast tumors; LA1 2 mg/kg + IR 20 Gy): synergized with irradiation to suppress CL66-Luc breast tumor growth
- CL66-Luc tumor growth (CL66-Luc breast tumors; LA1 2 mg/kg i.p. daily, compared with taxol): potently reduced tumor growth in syngeneic, orthotopically implanted CL66-Luc breast tumors more effectively than taxol
- survival (CL66-Luc breast tumors; mouse models of cancer): prolong survival in mouse models of cancer
- CL66 Luc tumor growth relative to control tumors (CL66-Luc breast tumors; syngeneic, immune competent mice): 25%
- MDA-MB-231 xenograft tumor growth ([1]; LA1 2.0 mg/kg i.p. daily): suppressed the growth of orthotopic, human MDA-MB-231 mammary xenograft tumors
- MDA-MB-231 tumor growth relative to control treated animals ([1]; mice which lack T cells): 50%
- LLC or macrophage viability [2]: no direct effect on LLC or macrophage viability
- CL66-Luc breast tumor cell growth in vitro (CL66-luc tumor cell): no effect on CL66-Luc breast tumor cell growth in vitro
